In ChEMBL document CHEMBL2390873, “Rational design, synthesis and QSAR study of vasorelaxant active 3-pyridinecarbonitriles incorporating 1H-benzimidazol-2-yl function” (Eur J Med Chem, 2013):

What follows are molecules tested on Aorta (assay: Vasorelaxant activity in Wister rat isolated thoracic aortic rings assessed as reduction of norepinephrine hydrochloride-induced contraction).
Assay type: functional, tissue-based

Compound | IC50 [µM]
COc1nc(-c2nc3ccccc3[nH]2)cc(-c2ccc(C)o2)c1C#N | 202
COc1nc(-c2nc3ccccc3n2C)cc(-c2ccccc2)c1C#N | 300
COc1nc(-c2nc3ccccc3n2C)cc(-c2ccc(Cl)cc2)c1C#N | 145
CCOc1nc(-c2nc3ccccc3n2C)cc(-c2ccc(Cl)cc2)c1C#N | 293
CCOc1nc(-c2nc3ccccc3n2C)cc(-c2cccs2)c1C#N | 249
CCOc1nc(-c2nc3ccccc3n2C)cc(-c2ccc(OC)cc2)c1C#N | 436
COc1nc(-c2nc3ccccc3n2C)cc(-c2ccc(C)cc2)c1C#N | 295
CCOc1nc(-c2nc3ccccc3n2C)cc(-c2ccc(F)cc2)c1C#N | 362

The remaining molecules from weak to strong by IC50, led by results:

IC50 [µM] | Compound
400 | CCOc1nc(-c2nc3ccccc3n2C)cc(-c2ccc(C)cc2)c1C#N
364 | CCOc1nc(-c2nc3ccccc3n2C)cc(-c2ccccc2)c1C#N
343 | COc1nc(-c2nc3ccccc3n2C)cc(-c2ccc(F)cc2)c1C#N
336 | CCOc1nc(-c2nc3ccccc3n2C)cc(-c2ccc(C)o2)c1C#N
312 | COc1nc(-c2nc3ccccc3n2C)cc(-c2cccs2)c1C#N
305 | CCOc1nc(-c2nc3ccccc3n2C)cc(-c2ccc(Cl)cc2Cl)c1C#N
286 | COc1nc(-c2nc3ccccc3[nH]2)cc(-c2ccc(Cl)cc2)c1C#N
283 | COc1nc(-c2nc3ccccc3n2C)cc(-c2ccc(C)o2)c1C#N
214 | COc1nc(-c2nc3ccccc3n2C)cc(-c2ccc(Cl)cc2Cl)c1C#N
210 | COc1ccc(-c2cc(-c3nc4ccccc4n3C)nc(OC)c2C#N)cc1
